Source: ChEMBL document CHEMBL1201862, “PubChem BioAssay data set” (2004)
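Tested at 5 concentrations; 48 h exposure; 96-well plates; endpoints linearly interpolated, else capped at highest concentration. Here, GI50 denotes the concentration required for 50% inhibition of growth.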 The source made the active and inactive calls. Rule as the data show it: active = GI50 up to about 1.1 µM and inactive = higher.

Key:
Assay in all cases: NCI-60 cell line screen, 48 h
SNB-78 = test system: SNB-78
LXFL 529 = test system: LXFL 529
M19-MEL = test system: M19-MEL
XF498 = test system: XF498
KM-20L2 = test system: KM-20L2
DMS-273 = test system: DMS-273
HOP-18 = test system: HOP-18
RXF 631 = test system: RXF 631
DMS-114 = test system: DMS-114

O=C(OCc1nc2ccc(Br)cc2c(=O)n1-c1ccccc1)c1ccccc1O
GI50 (SNB-78): > 100 µM (inactive)
GI50 (LXFL 529): 35.4 µM (inactive)
GI50 (M19-MEL): > 100 µM (inactive)
GI50 (XF498): 51.4 µM (inactive)
GI50 (KM-20L2): > 100 µM (inactive)

N#Cc1c(-c2ccco2)cc(-c2ccc(NCc3nc4ccccc4[nH]3)cc2)nc1N
GI50 (LXFL 529): 17.9 µM (inactive)
GI50 (M19-MEL): 25.1 µM (inactive)
GI50 (DMS-273): 18 µM (inactive)
GI50 (HOP-18): 24.4 µM (inactive)

[O-][S+]1Cc2ccccc2CS1 (stereo not given)
GI50 (SNB-78): 14.7 µM (inactive)
GI50 (LXFL 529): 15.1 µM (inactive)
GI50 (M19-MEL): 17 µM (inactive)
GI50 (XF498): 17.9 µM (inactive)
GI50 (RXF 631): 48.9 µM (inactive)
GI50 (KM-20L2): 25.3 µM (inactive)
GI50 (DMS-273): 14.2 µM (inactive)
GI50 (HOP-18): 33 µM (inactive)

COC(=O)c1nc(C(=O)OC)c2c([nH]c3ccccc32)c1C(=O)OC
GI50 (SNB-78): > 100 µM (inactive)
GI50 (LXFL 529): 74.5 µM (inactive)
GI50 (DMS-114): 49.3 µM (inactive)
GI50 (XF498): 35.2 µM (inactive)
GI50 (DMS-273): 60 µM (inactive)
GI50 (HOP-18): < 0.01 µM (active)

O=C(C#Cc1cnc(O)nc1O)c1ccccc1
GI50 (SNB-78): 10.4 µM (inactive)
GI50 (M19-MEL): 9.48 µM (inactive)
GI50 (DMS-114): 15.1 µM (inactive)
GI50 (RXF 631): 14 µM (inactive)
GI50 (DMS-273): 14.9 µM (inactive)
GI50 (HOP-18): 15.7 µM (inactive)

O=c1[nH]c(=O)n(C2CC(O)C(CO)O2)cc1C#Cc1cc(F)cc(F)c1 (stereo not given)
GI50 (SNB-78): > 100 µM (inactive)
GI50 (LXFL 529): > 100 µM (inactive)
GI50 (M19-MEL): > 100 µM (inactive)
GI50 (DMS-114): > 100 µM (inactive)
GI50 (XF498): > 100 µM (inactive)
GI50 (RXF 631): > 100 µM (inactive)
GI50 (KM-20L2): > 10 µM (inactive)
GI50 (DMS-273): > 100 µM (inactive)
GI50 (HOP-18): 24.7 µM (inactive)

O=C1c2ccccc2C(=O)c2c(NCCNCCO)ccc(O)c21
GI50 (SNB-78): 4.61 µM (inactive)
GI50 (LXFL 529): 3.69 µM (inactive)
GI50 (M19-MEL): 2.82 µM (inactive)
GI50 (DMS-114): 4.59 µM (inactive)
GI50 (XF498): 4.89 µM (inactive)
GI50 (KM-20L2): 2.94 µM (inactive)
GI50 (DMS-273): 2.22 µM (inactive)
GI50 (HOP-18): 9.27 µM (inactive)

COc1ccc2cc1Oc1ccc(cc1)CC1c3cc4c(cc3CCN1C)Oc1c(OC)cc3c(c1O4)C(C2)N(C)CC3 (stereo not given)
GI50 (SNB-78): 17.6 µM (inactive)
GI50 (LXFL 529): 2 µM (inactive)
GI50 (M19-MEL): 4.01 µM (inactive)
GI50 (XF498): 1.94 µM (inactive)
GI50 (RXF 631): 4.99 µM (inactive)
GI50 (KM-20L2): 2.55 µM (inactive)
GI50 (DMS-273): 1.63 µM (inactive)

O=C1C/C(=C/c2ccc(/C=C3/CC(=O)N(c4cccc(Br)c4)C3=O)cc2)C(=O)N1c1cccc(Br)c1
GI50 (SNB-78): 36.2 µM (inactive)
GI50 (LXFL 529): > 100 µM (inactive)
GI50 (M19-MEL): > 100 µM (inactive)
GI50 (DMS-114): > 100 µM (inactive)
GI50 (XF498): 26.5 µM (inactive)
GI50 (KM-20L2): > 100 µM (inactive)
GI50 (DMS-273): > 100 µM (inactive)
GI50 (HOP-18): > 100 µM (inactive)

CCCCCC(/C=C/[C@@H]1[C@H]2CC(=O)O[C@H]2C[C@H]1N1CCOCC1)OC1CCCO1 (stereo not given in full)
GI50 (SNB-78): > 100 µM (inactive)
GI50 (LXFL 529): > 100 µM (inactive)
GI50 (M19-MEL): > 100 µM (inactive)
GI50 (DMS-114): > 100 µM (inactive)
GI50 (KM-20L2): > 100 µM (inactive)
GI50 (DMS-273): > 100 µM (inactive)
GI50 (HOP-18): > 100 µM (inactive)

C/C=C/C=C/[C@H]1Cc2cc(O)cc(O)c2O1
GI50 (SNB-78): > 100 µM (inactive)
GI50 (LXFL 529): 27.4 µM (inactive)
GI50 (M19-MEL): 39.6 µM (inactive)
GI50 (DMS-114): 22.6 µM (inactive)
GI50 (XF498): 46.5 µM (inactive)
GI50 (RXF 631): 62.4 µM (inactive)
GI50 (KM-20L2): 62.4 µM (inactive)
GI50 (DMS-273): 28.9 µM (inactive)
GI50 (HOP-18): > 100 µM (inactive)

CCOc1ccc(NCC2CC/C(=C\c3ccccc3OC)C2=O)cc1 (stereo not given)
GI50 (SNB-78): 16.5 µM (inactive)
GI50 (LXFL 529): 2.56 µM (inactive)
GI50 (M19-MEL): 8.95 µM (inactive)
GI50 (DMS-114): 9.71 µM (inactive)
GI50 (RXF 631): 23.8 µM (inactive)
GI50 (KM-20L2): 14 µM (inactive)
GI50 (DMS-273): 2.58 µM (inactive)
GI50 (HOP-18): 15.3 µM (inactive)

O=C1[C@H]2ON(c3ccccc3)C(c3ccc(Cl)cc3)[C@H]2C(=O)N1c1ccc(Cc2ccc(N3C(=O)[C@@H]4ON(c5ccccc5)C(c5ccc(Cl)cc5)[C@@H]4C3=O)cc2)cc1 (stereo not given in full)
GI50 (SNB-78): > 100 µM (inactive)
GI50 (LXFL 529): 94.8 µM (inactive)
GI50 (M19-MEL): > 100 µM (inactive)
GI50 (DMS-114): > 100 µM (inactive)
GI50 (RXF 631): > 100 µM (inactive)
GI50 (KM-20L2): > 100 µM (inactive)
GI50 (DMS-273): > 100 µM (inactive)
GI50 (HOP-18): > 100 µM (inactive)

COc1ccc2[nH]c3c(c2c1)[C@H](C)C[C@@H]1C(=O)N(c2ccccc2)C(=O)[C@H]31
GI50 (LXFL 529): 29.6 µM (inactive)
GI50 (M19-MEL): 36.7 µM (inactive)
GI50 (DMS-114): 33.8 µM (inactive)
GI50 (XF498): 24.5 µM (inactive)
GI50 (RXF 631): 20.5 µM (inactive)
GI50 (KM-20L2): 62.8 µM (inactive)
GI50 (DMS-273): 37.8 µM (inactive)
GI50 (HOP-18): 20.9 µM (inactive)

O=C(/C=C/c1ccccc1)c1ccc(NCc2nc3ccccc3[nH]2)cc1
GI50 (SNB-78): 4.9 µM (inactive)
GI50 (LXFL 529): 2.83 µM (inactive)
GI50 (M19-MEL): 4.41 µM (inactive)
GI50 (DMS-114): 2.56 µM (inactive)
GI50 (XF498): 7.6 µM (inactive)
GI50 (KM-20L2): 2.9 µM (inactive)
GI50 (DMS-273): 4.5 µM (inactive)
GI50 (HOP-18): 2.34 µM (inactive)

Cc1ccc(C)c(NC(=O)CC/C(=N\NC(=O)C(=O)NN)C(C)C(=O)c2ccc(O)cc2)c1 (stereo not given)
GI50 (SNB-78): > 100 µM (inactive)
GI50 (LXFL 529): > 100 µM (inactive)
GI50 (M19-MEL): > 100 µM (inactive)
GI50 (KM-20L2): > 100 µM (inactive)
GI50 (DMS-273): > 100 µM (inactive)
GI50 (HOP-18): > 100 µM (inactive)

CCOC(=O)NC(=O)c1cn(CCCOC(=O)CCCCCCCCCCC(=O)OCCCn2cc(C(=O)NC(=O)OCC)c(=O)n(C)c2=O)c(=O)n(C)c1=O
GI50 (SNB-78): > 100 µM (inactive)
GI50 (LXFL 529): > 100 µM (inactive)
GI50 (M19-MEL): > 100 µM (inactive)
GI50 (DMS-114): > 100 µM (inactive)
GI50 (XF498): > 100 µM (inactive)
GI50 (DMS-273): > 100 µM (inactive)
GI50 (HOP-18): > 100 µM (inactive)

O=C(O)c1ccccc1[Se][Se]c1ccccc1C(=O)O
GI50 (M19-MEL): 41.4 µM (inactive)
GI50 (DMS-114): 32.3 µM (inactive)
GI50 (XF498): 70 µM (inactive)
GI50 (RXF 631): 28.4 µM (inactive)
GI50 (KM-20L2): 25.8 µM (inactive)
GI50 (DMS-273): 66.1 µM (inactive)
GI50 (HOP-18): 23.2 µM (inactive)

COC(=O)/C(=N\Nc1nc(S)nn1N)C(C#N)c1ccccc1 (stereo not given)
GI50 (SNB-78): > 100 µM (inactive)
GI50 (LXFL 529): > 100 µM (inactive)
GI50 (M19-MEL): > 100 µM (inactive)
GI50 (KM-20L2): > 100 µM (inactive)
GI50 (HOP-18): > 100 µM (inactive)

CCOC(=O)/C(I)=C/c1cc(OC)c(OC)c(OC)c1
GI50 (SNB-78): 28.2 µM (inactive)
GI50 (LXFL 529): 10.4 µM (inactive)
GI50 (M19-MEL): 4.12 µM (inactive)
GI50 (DMS-114): 2.92 µM (inactive)
GI50 (XF498): 2.92 µM (inactive)
GI50 (KM-20L2): 3.21 µM (inactive)
GI50 (DMS-273): 6.68 µM (inactive)
GI50 (HOP-18): 11.6 µM (inactive)

Cn1c2cc(O)cc(O)c2c(=O)c2c([N+](=O)[O-])cccc21
GI50 (SNB-78): > 100 µM (inactive)
GI50 (LXFL 529): > 100 µM (inactive)
GI50 (DMS-114): > 100 µM (inactive)
GI50 (RXF 631): > 100 µM (inactive)
GI50 (KM-20L2): > 100 µM (inactive)
GI50 (DMS-273): > 100 µM (inactive)
GI50 (HOP-18): > 100 µM (inactive)

CC(C)CS(=O)(=O)/C(=C(\c1ccc(Br)cc1)S(=O)(=O)CC(C)C)c1ccc(Br)cc1
GI50 (SNB-78): 97.7 µM (inactive)
GI50 (LXFL 529): > 100 µM (inactive)
GI50 (M19-MEL): > 100 µM (inactive)
GI50 (XF498): > 100 µM (inactive)
GI50 (RXF 631): > 100 µM (inactive)
GI50 (KM-20L2): > 100 µM (inactive)
GI50 (DMS-273): > 100 µM (inactive)
GI50 (HOP-18): > 100 µM (inactive)

COc1ccc(/C=C2\CCC(CCN(C)C)(C3=CCCC3)C2=O)cc1Br (stereo not given)
GI50 (SNB-78): 9.02 µM (inactive)
GI50 (LXFL 529): 4.71 µM (inactive)
GI50 (M19-MEL): 2.93 µM (inactive)
GI50 (DMS-114): 4.32 µM (inactive)
GI50 (XF498): 3.24 µM (inactive)
GI50 (RXF 631): 14.7 µM (inactive)
GI50 (KM-20L2): 1.59 µM (inactive)
GI50 (DMS-273): 3.78 µM (inactive)
GI50 (HOP-18): 12.4 µM (inactive)

[O-][S+]1c2ccccc2N=C(c2cccc3ccccc23)CC1c1cccc2ccccc12 (stereo not given)
GI50 (SNB-78): 39 µM (inactive)
GI50 (LXFL 529): 17.5 µM (inactive)
GI50 (M19-MEL): 2.01 µM (inactive)
GI50 (DMS-114): 16.5 µM (inactive)
GI50 (XF498): 20.6 µM (inactive)
GI50 (RXF 631): 36.4 µM (inactive)
GI50 (KM-20L2): 36.3 µM (inactive)
GI50 (DMS-273): 29.6 µM (inactive)
GI50 (HOP-18): 12.2 µM (inactive)
